pIC50: −log10 of the molar value. Read-outs that look alike come from different tables or passages of the source.
Target: T1, Human DGAT1 (Homo sapiens, UniProt O75907)
T1 construct: my translation of the primer: M-G-DYKDDDD-GDRGSSRRR) (N); made in house; host or cells: Sf9 insect cells (recombinant baculovirus BAC-DGAT1, pFASTBAC1); microsome fraction
T1 sequence (O75907 1-488): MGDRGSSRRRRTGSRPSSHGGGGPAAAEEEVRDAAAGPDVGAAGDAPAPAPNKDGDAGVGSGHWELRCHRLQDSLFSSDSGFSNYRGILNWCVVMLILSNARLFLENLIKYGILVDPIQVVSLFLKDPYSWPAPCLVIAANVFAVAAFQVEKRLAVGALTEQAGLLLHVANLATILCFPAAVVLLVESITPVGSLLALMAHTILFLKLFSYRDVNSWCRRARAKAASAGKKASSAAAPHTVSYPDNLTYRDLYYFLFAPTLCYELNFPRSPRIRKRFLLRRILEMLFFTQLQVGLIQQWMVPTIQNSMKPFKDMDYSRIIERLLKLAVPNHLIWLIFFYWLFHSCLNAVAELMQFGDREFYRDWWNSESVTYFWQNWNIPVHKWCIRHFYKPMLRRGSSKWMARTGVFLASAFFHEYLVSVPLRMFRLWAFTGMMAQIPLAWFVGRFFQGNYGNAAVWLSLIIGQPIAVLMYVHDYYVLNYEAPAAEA
Experiment: DGAT inhibitory activity: [14C]-triglyceride synthesis by DGAT1 high expression Sf9 microsome
Assay type: biochemical
Conditions: 25 μM [14C]-Oleoyl-CoA, 32° C., 15 min, read-out: DGAT inhibitory activity (according to IC50)
Method: The primer base sequence is shown below.
The PCR reaction was conducted using a KOD-plus kit (TOYOBO). The obtained PCR product was electrophoresed on agarose gel (1%), the DNA fragment amplified by PCR was recovered from the gel, and then digested with restriction enzymes EcoRI and SpeI. […] Furthermore, using BAC-TO-BAC Baculovirus Expression System (Invitrogen), recombinant baculovirus BAC-DGAT1 was prepared.
SF9 cells were sown at 1×10^6 cells/ml on Sf-900II SEM medium (1 L, Invitrogen) containing 10% fetal calf serum (Trace), 50 mg/L gentamicin (Invitrogen) and 0.1% Pluronic F-68 (Invitrogen), and shaking culture was performed using a 2 L volume Erlenmeyer at 27° C., 100 rpm. After culturing for 24 hr, recombinant baculovirus BAC-DGAT1 (6.7 mL) was added, and the mixture was further cultured for 3 days. The culture medium was centrifuged at 2,000 rpm for 5 min to give virus-infected cells. The infected cells were washed with a phosphate buffered saline (Invitrogen), centrifuged under the same conditions, and the cells were preserved at −80° C. The cryopreserved cells were thawed in ice, suspended in buffer A (50 mM Tris buffer (30 mL, pH 7.4) containing 20% glycerol, 0.15 M NaCl) supplemented with Complete Protease Inhibitor (Boehringer), and ruptured 3 times with a Polytron homogenizer (Kinematica) at 20,000 rpm for 30 sec. The Sf9 microsome fractions were obtained by a conventional method and cryopreserved at −80° C. as a DGAT1 high expression Sf9 microsome.
As a DGAT1 reaction buffer, a solution having a composition of 100 mM Tris-HCl (pH 7.5), 250 mM sucrose, 150 mM MgCl2, 0.01% bovine serum albumin (BSA) was used. […] A mixture of 300 μL of chloroform:methanol (=1:2) was added to the reaction mixture to quench the reaction. The reaction mixture was sufficiently mixed and saline (200 μL) was added to partition the mixture between a chloroform layer (lower layer) and an aqueous layer (upper layer). The chloroform layer (50 μL) was spotted on a thin layer chromatography silica gel plate (TLC plate, Merck) and developed with a solvent (n-hexane:diethyl ether:ethyl acetate:acetic acid=74:15:15:1). The developed TLC plate was dried, contacted with a BAS imaging plate (manufactured by FUJIFILM) and measured with BAS2500 (manufactured by FUJIFILM) 16 hr later to numerically show the amount of [^14C]-triglyceride (TG amount) produced during the reaction. The inhibitory rate was calculated by the following formula:
Inhibitory rate (%)=(1−(TG amount in the case with addition of test compound−blank TG amount)/(control TG amount−blank TG amount))×100
The count of the triglyceride produced in the solution reacted without addition of the test compound was used as a “control TG amount”, and the count of the triglyceride produced in the solution reacted without addition of the test compound and DGAT1 high expression Sf9 microsome was used as a “blank TG amount”.

[1] = Table 2, 25 μM dioleoylglycerol
[2] = Table 1, 25 μM dioleoylglycerol

SMILES | pIC50 [1] | pIC50 [2]
CCOc1cccc(C(=O)CCC(=O)Nc2cc(-c3ccccc3)cc(-c3ccccc3)n2)c1 [Example 103, N-(4,6-diphenylpyridin-2-yl)-4-(3-ethoxyphenyl)-4-oxobutanamide] | 5.00 to 6.30 | –
O=C(CCC(=O)c1ccc(O)cc1)Nc1nc(-c2ccccc2)c(Cc2ccccc2)s1 [Example 33, N-(5-benzyl-4-phenyl-1,3-thiazol-2-yl)-4-(4-hydroxyphenyl)-4-oxobutanamide] | – | 6.30 to 7.30
CCOc1ccc(C(=O)CCC(=O)Nc2cc(-c3cnn(C)c3)cc(-c3ccccc3)n2)cc1OCC [Example 119, 4-(3,4-diethoxyphenyl)-N-[4-(1-methyl-1H-pyrazol-4-yl)-6-phenylpyridin-2-yl]-4-oxobutanamide] | 6.30 to 7.30 | –
CCOc1ccc(C(=O)CCC(=O)Nc2cc(-c3ccccc3)cc(-c3ccccc3)n2)cc1OCC [Example 11, 4-(3,4-diethoxyphenyl)-N-(4,6-diphenylpyridin-2-yl)-4-oxobutanamide] | – | 7.30 to 8.00
N#Cc1cccc(-c2cc(NC(=O)CCC(=O)c3ccc4c(c3)CCO4)nc(-c3ccccc3)c2)c1 [Example 163, N-[4-(3-cyanophenyl)-6-phenylpyridin-2-yl]-4-(2,3-dihydro-1-benzofuran-5-yl)-4-oxobutanamide] | 6.30 to 7.30 | –
CCOc1ccc(C(=O)CCC(=O)Nc2cc(-c3ccc(N(C)C)cc3)cc(-c3ccccc3)n2)cc1OCC [Example 131, 4-(3,4-diethoxyphenyl)-N-{4-[4-(dimethylamino)phenyl]-6-phenylpyridin-2-yl}-4-oxobutanamide] | 6.30 to 7.30 | –
O=C(CCC(=O)c1ccc2c(c1)CCO2)Nc1cc(-c2ccccc2CO)cc(-c2ccccc2)n1 [Example 179, 4-(2,3-dihydro-1-benzofuran-5-yl)-N-{4-[2-(hydroxymethyl)phenyl]-6-phenylpyridin-2-yl}-4-oxobutanamide] | 6.30 to 7.30 | –
CCOc1ccc(C(=O)CCC(=O)Nc2cc(-c3cc(OC)c(OC)c(OC)c3)cc(-c3ccccc3)n2)cc1OCC [Example 150, 4-(3,4-diethoxyphenyl)-4-oxo-N-[6-phenyl-4-(3,4,5-trimethoxyphenyl)pyridin-2-yl]butanamide] | 5.00 to 6.30 | –
CCOc1ccc(C(=O)CCC(=O)Nc2cc(-c3ccccc3)c3ccccc3n2)cc1 [Example 79, 4-(4-ethoxyphenyl)-4-oxo-N-(4-phenylquinolin-2-yl)butanamide] | 7.30 to 8.00 | –
CCOc1ccc(C(=O)CCC(=O)Nc2cc(-c3ccc(C#N)cc3)cc(-c3ccccc3)n2)cc1OCC [Example 122, N-[4-(4-cyanophenyl)-6-phenylpyridin-2-yl]-4-(3,4-diethoxyphenyl)-4-oxobutanamide] | 6.30 to 7.30 | –
CCOc1ccc(C(=O)CCC(=O)Nc2cc(-c3ccccc3)c(Cc3ccccc3)s2)cc1OCC [Example 17, N-(5-benzyl-4-phenyl-2-thienyl)-4-(3,4-diethoxyphenyl)-4-oxobutanamide] | – | 7.30 to 8.00
CCOc1ccc(C(=O)CCC(=O)Nc2cc(-c3ccc(OCCN4CCOCC4)cc3)c3ccccc3n2)cc1OCC [Example 90, 4-(3,4-diethoxyphenyl)-N-{4-[4-(2-(morpholin-4-yl)ethoxy)phenyl]quinolin-2-yl}-4-oxobutanamide] | 6.30 to 7.30 | –
CCOc1ccc(C(=O)CCC(=O)Nc2cc(-c3ccc(CN4CCOCC4)cc3)cc(-c3ccccc3)n2)cc1OCC [Example 130, 4-(3,4-diethoxyphenyl)-N-{4-[4-(morpholin-4-ylmethyl)phenyl]-6-phenylpyridin-2-yl}-4-oxobutanamide] | 5.00 to 6.30 | –
O=C(O)Cc1ccc(C(=O)CCC(=O)Nc2nc(-c3ccccc3)c(Cc3ccccc3)s2)cc1 [Example 35] | – | 5.00 to 6.30
O=C(CCC(=O)c1ccc2c(c1)CCO2)Nc1cc(-c2ccccc2)c(Cc2ccccc2)s1 [Example 49, N-(5-benzyl-4-phenyl-2-thienyl)-4-(2,3-dihydro-1-benzofuran-5-yl)-4-oxobutanamide] | – | 7.30 to 8.00
CCOc1ccc(C(=O)CCC(=O)Nc2nc(-c3ccccc3)c(Cc3ccccc3)s2)cc1Br [Example 25, N-(5-benzyl-4-phenyl-1,3-thiazol-2-yl)-4-(3-bromo-4-ethoxyphenyl)-4-oxobutanamide] | – | ≥ 8.00
CCOC(=O)/C=C/c1ccc2nc(NC(=O)CCC(=O)c3ccc(OCC)c(OCC)c3)cc(-c3ccc(C)cc3)c2c1 [Example 77, ethyl(2E)-3-[2-{[4-(3,4-diethoxyphenyl)-4-oxobutanoyl]amino}-4-(4-methylphenyl)quinoline-6-yl]acrylate] | 7.30 to 8.00 | –

Next, values leading:

pIC50 [1] | pIC50 [2] | SMILES
5.00 to 6.30 | – | CCOc1ccc(C(=O)CCC(=O)Nc2cc(-c3ccccc3Cl)nn2-c2ccc(C)cc2)cc1OCC [Example 101, N-[3-(2-chlorophenyl)-1-(4-methylphenyl)-1H-pyrazol-5-yl]-4-(3,4-diethoxyphenyl)-4-oxobutanamide]
5.00 to 6.30 | – | CCOc1ccc(C(=O)CCC(=O)Nc2cc(-c3cccn3C(=O)OC(C)(C)C)cc(-c3ccccc3)n2)cc1OCC [Example 118, tert-butyl 2-(2-{[4-(3,4-diethoxyphenyl)-4-oxobutanoyl]amino}-6-phenylpyridin-4-yl)-1H-pyrrole-1-carboxylate]
5.00 to 6.30 | – | CCOc1ccc(C(=O)CCC(=O)Nc2cc3ccccc3c(-c3ccccc3)n2)cc1OCC [Example 84, 4-(3,4-diethoxyphenyl)-4-oxo-N-(1-phenylisoquinolin-3-yl)butanamide]
6.30 to 7.30 | – | CCOc1ccc(C(=O)CCC(=O)Nc2nc3ccccc3c(-c3ccccc3)c2C)cc1OCC [Example 88, 4-(3,4-diethoxyphenyl)-N-(3-methyl-4-phenylquinolin-2-yl)-4-oxobutanamide]
– | ≥ 8.00 | O=C(CCC(=O)c1ccc2c(c1)CCCC2)Nc1nc(-c2ccccc2)c(Cc2ccccc2)s1 [Example 7, N-(5-benzyl-4-phenyl-1,3-thiazol-2-yl)-4-oxo-4-(5,6,7,8-tetrahydronaphthalen-2-yl)butanamide]
– | 7.30 to 8.00 | CCOc1ccc(C(=O)CCC(=O)Nc2ccn(Cc3ccccc3)c2-c2ccccc2)cc1OCC [Example 19, N-(1-benzyl-2-phenyl-1H-pyrrol-3-yl)-4-(3,4-diethoxyphenyl)-4-oxobutanamide]
6.30 to 7.30 | – | CCOc1ccc(C(=O)CCC(=O)Nc2cc(-c3ccoc3)cc(-c3ccccc3)n2)cc1OCC [Example 117, 4-(3,4-diethoxyphenyl)-N-[4-(3-furyl)-6-phenylpyridin-2-yl]-4-oxobutanamide]
5.00 to 6.30 | – | O=C(CCC(=O)c1ccc2c(c1)CCO2)Nc1cc(-c2ccncc2)cc(-c2ccccc2)n1 [Example 116, 4-(2,3-dihydro-1-benzofuran-5-yl)-4-oxo-N-(6-phenyl-4,4′-bipyridin-2-yl)butanamide]
6.30 to 7.30 | – | CCOc1ccc(C(=O)CCC(=O)Nc2cn(-c3ccccc3)nc2-c2ccc(F)cc2)cc1OCC [Example 108, 4-(3,4-diethoxyphenyl)-N-[3-(4-fluorophenyl)-1-phenyl-1H-pyrazol-4-yl]-4-oxobutanamide]
6.30 to 7.30 | – | CCOc1ccc(C(=O)CCC(=O)Nc2cc(-c3ccncc3)c3ccccc3n2)cc1OCC [Example 91, 4-(3,4-diethoxyphenyl)-4-oxo-N-[4-(pyridin-4-yl)quinolin-2-yl]butanamide]
6.30 to 7.30 | – | CCOc1ccc(C(=O)CCC(=O)Nc2cc(-c3ccccn3)c3ccccc3n2)cc1OCC [Example 89, 4-(3,4-diethoxyphenyl)-4-oxo-N-[4-(pyridin-2-yl)quinolin-2-yl]butanamide]

Source: patent US20090048258A1, “Amide Compound” (priority 2005, published 2009)
